Measurements published in US8940343B2, “Personal care composition” (Conopco Inc., priority 2010, dated 2015).

Legend:
[1] = HPTLC photostability of Parsol 1789 spotted with potential quencher molecules (methanol stock solutions), UVR exposure, densitometry; format: physicochemical; conditions: Parsol 1789 remaining on HPTLC plate after UVR 5.5 mW/cm^2 for 120 minutes; ratios by weight
Protocol: The method was based on spotting the HPTLC plates (in duplicate) with the sunscreen molecules of interest along with potential quencher molecules or formulations. The plate is then exposed to UVR (intensity 5.5 mW/cm^2) for 120 minutes. Following this the chromatographic separation was carried out using appropriate solvent system. Densitometry analysis is done to determine the amount of sunscreen degraded.
Stock solutions were prepared in methanol following the ratios as mentioned in the following table. 14 μL of stock solutions were loaded (3 mm width; 16 mm separation) on a 10×10 cm F254 HPTLC plate, using CAMAG LINOMAT 5 applicator equipped with a 100 μL micro-syringe (Hamilton, Switzerland). Ascending chromatography was performed at a distance of 85 mm in a TLC chamber using n-hexane-ethyl acetate 9:1 (v/v) as the mobile phase (˜10 mL). The plates were dried at room temperature and subjected to ultraviolet absorption densitometry scan. The concentration dependent fluorescent bands due to presence of sunscreens were detected with a linear scan at 310 or 357 nm, using Camag TLC Scanner 3, in the presence of deuterium source. […] 4-t-buty-4′-methoxdibenzoylmethane concentrations present on each lane were determined from densitogram peak areas; prior and after the sun exposure using Win CATS Planar chromatography manager software.

[2] = known phenolic antioxidants compared with theaflavin

Compound	Mean Percent stability [1] [%]	stabilizing property for sunscreens [2]
COc1ccc(C(=O)CC(=O)c2ccc(C(C)(C)C)cc2)cc1 [Example 1a, 4-t-butyl-4′-methoxydibenzoylmethane]	61.9	
COC(=O)c1cc(O)c(O)c(O)c1 [methyl gallate]		did not provide the stabilizing property
